Reference: patent US20110201564A1, “SUBSTITUTED 7-SULFANYLMETHYL, 7-SULFINYLMETHYL AND 7-SULFONYLMETHYL INDOLES AND USE THEREOF” (BAYER SCHERING PHARMA AKTIENGESELLSCHAFT, priority 2008, published 2011)

Legend:
CYP3A4 = target: T1, CYP3A4 (Homo sapiens, UniProt P08684); assay: Assay to assess irreversible CYP3A4 inhibition (mechanism-based inhibition) in human liver microsomes; format: in vitro ADME; conditions: CYP3A4 activity as 6β-hydroxytestosterone formation, 2-20 μM
T1 construct: using human liver microsomes (pool from various individuals); from tissue; host or cells: human liver microsomes (pool from various individuals)
T1 sequence (P08684 whole entry): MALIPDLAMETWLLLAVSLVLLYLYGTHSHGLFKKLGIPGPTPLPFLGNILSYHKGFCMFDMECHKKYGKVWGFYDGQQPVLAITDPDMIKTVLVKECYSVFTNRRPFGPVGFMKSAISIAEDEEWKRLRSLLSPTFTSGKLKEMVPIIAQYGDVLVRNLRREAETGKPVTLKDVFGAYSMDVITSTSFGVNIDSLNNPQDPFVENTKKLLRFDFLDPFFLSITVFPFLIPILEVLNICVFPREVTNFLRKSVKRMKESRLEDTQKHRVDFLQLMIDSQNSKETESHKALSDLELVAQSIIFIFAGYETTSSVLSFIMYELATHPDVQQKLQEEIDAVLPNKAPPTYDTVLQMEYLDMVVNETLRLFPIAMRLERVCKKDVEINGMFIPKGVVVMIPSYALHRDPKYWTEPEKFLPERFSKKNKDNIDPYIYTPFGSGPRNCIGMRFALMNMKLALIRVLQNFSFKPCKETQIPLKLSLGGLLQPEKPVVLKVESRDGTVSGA
Text: 8. Assay to Assess Irreversible CYP3A4 Inhibition
Cytochrom P450 enzyme inhibition, especially irreversible enzyme inhibition, also referred to as mechanism-based inhibition (MBI), is an unwanted metabolic property of a substance which may, on concurrent administration of other medicaments, lead to considerable drug interactions. Criteria for the presence of an irreversible inhibition are a time-, concentration- and cofactor- (nicotinamide adenine dinucleotide phosphate, NADPH) dependent inhibition. To this end, the compounds of the invention are incubated in vitro with human liver microsomes, the influence on the CYP3A4 activity and the metabolic degradation of the novel active ingredient is determined, and the prototypical parameters kinact, Ki and the partition ratio r are ascertained therefrom.
The compounds of the invention are incubated with concentrations of 2-20 μM. To this end, stock solutions of the active ingredients with a concentration of 0.2-2 mM are prepared in acetonitrile and then pipetted with a 1:100 dilution into the incubation mixture. The liver microsomes are incubated in 50 mM potassium phosphate buffer (pH 7.4) with and without NADPH-generating system consisting of 1 mM NADP^+, 5 mM glucose 6-phosphate and 1 unit of glucose 6-phosphate dehydrogenase, at 37° C. After defined preincubation times of 0-50 min, aliquots are removed from these mixtures, diluted 1:25 in a new incubation, and incubated in the presence of testosterone and new NADPH-generating system again for 20 min. These incubation mixtures are stopped with acetonitrile (final concentration about 30% v/v), and the protein is removed by centrifugation at about 15 000×g. The samples stopped in this way are either analyzed directly or stored at −20° C. until analyzed.
The analysis takes place by high performance liquid chromatography with mass spectrometry detection (LC-MS). The formation of 6β-hydroxytestosterone as measure of CYP3A4 activity, and the test substance still remaining is quantified. The parameters kinact, Ki and the partition ratio r are determined therefrom so as to assess the novel active ingredients in relation to MBI.

[1] = target: T2, progesterone receptor (PR) (Homo sapiens, UniProt P06401); assay: Cellular in vitro assay, GAL4-PR chimera luciferase reporter in CHO K1 cells (selectivity); format: cell-based; conditions: antagonism vs progesterone; CHO K1 GAL4-PR LBD luciferase reporter
T2 construct: of the progesterone receptor (PR, amino acids 680-933); expressed in transfected cells; host or cells: CHO K1
T2 sequence (P06401 680-933): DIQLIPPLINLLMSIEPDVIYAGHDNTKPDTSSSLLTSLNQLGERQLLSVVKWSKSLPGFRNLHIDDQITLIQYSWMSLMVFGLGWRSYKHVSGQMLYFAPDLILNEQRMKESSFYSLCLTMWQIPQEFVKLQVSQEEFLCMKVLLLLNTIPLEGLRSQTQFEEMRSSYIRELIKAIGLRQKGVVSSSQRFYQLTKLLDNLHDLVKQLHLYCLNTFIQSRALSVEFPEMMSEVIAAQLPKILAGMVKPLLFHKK
How it was run: (§1)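 CHO K1 cells stably expressing GAL4 DNA-binding domain fused to human MR, PR or AR ligand-binding domains plus GAL4-driven firefly luciferase; compounds added 10–30 min before agonist (aldosterone, progesterone or dihydrotestosterone), luciferase read after 5–6 h; IC50 from sigmoidal concentration–response curves.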

androgen receptor (AR) = target: T3, androgen receptor (AR) (Homo sapiens, UniProt P10275); assay: Cellular in vitro assay, GAL4-AR chimera luciferase reporter in CHO K1 cells (selectivity); format: cell-based; conditions: antagonism vs dihydrotestosterone; CHO K1 GAL4-AR LBD luciferase reporter
T3 construct: of the androgen receptor (AR, amino acids 667-919); expressed in transfected cells; host or cells: CHO K1
T3 sequence (P10275 668-920): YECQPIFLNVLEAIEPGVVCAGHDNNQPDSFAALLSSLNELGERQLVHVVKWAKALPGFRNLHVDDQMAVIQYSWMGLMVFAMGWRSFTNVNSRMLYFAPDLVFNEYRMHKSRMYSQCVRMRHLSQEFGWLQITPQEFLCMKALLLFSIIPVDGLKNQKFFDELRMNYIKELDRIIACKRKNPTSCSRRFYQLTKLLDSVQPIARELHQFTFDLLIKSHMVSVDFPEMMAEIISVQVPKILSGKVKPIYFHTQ
How it was run: as §1

[2] = target: T4, human mineralocorticoid receptor (MR) (Homo sapiens, UniProt P08235); assay: Cellular in vitro assay, GAL4-MR chimera luciferase reporter in CHO K1 cells (inhibitory MR activity); format: cell-based; conditions: antagonism vs aldosterone; CHO K1 GAL4-MR LBD luciferase reporter
T4 construct: expressed in transfected cells; host or cells: CHO K1
T4 sequence (P08235 734-984 limits assumed): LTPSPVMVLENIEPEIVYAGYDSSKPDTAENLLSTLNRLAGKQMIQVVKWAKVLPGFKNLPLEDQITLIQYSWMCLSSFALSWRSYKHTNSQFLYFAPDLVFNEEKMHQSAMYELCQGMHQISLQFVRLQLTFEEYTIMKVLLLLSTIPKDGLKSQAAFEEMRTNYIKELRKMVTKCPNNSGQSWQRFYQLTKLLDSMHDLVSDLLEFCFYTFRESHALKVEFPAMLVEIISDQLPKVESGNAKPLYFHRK
How it was run: as §1

| Partition ratio r (CYP3A4) | IC50 [1] | IC50 (androgen receptor (AR)) | IC50 [2] | Structure (SMILES) |
| --- | --- | --- | --- | --- |
| >200 | 10 µM | 0.94 µM | 0.006 µM | CS(=O)(=O)Cc1cc(F)cc2c(C(c3ccc(C(F)(F)F)cc3F)C3CC3C#N)c[nH]c12 (single isomer, unassigned) [Example 271-1-1, 2-({5-Fluoro-7-[(methylsulfonyl)methyl]-1H-indol-3-yl}[2-fluoro-4-(trifluoro-methyl)phenyl]methyl)cyclopropanecarbonitrile] |
| 220 | 10 µM | 7.76 µM | 0.08 µM | CS(=O)(=O)Cc1cccc2c(C(CCC#N)c3ccc(Cl)cc3F)c[nH]c12 (single isomer, unassigned) [Example 59-1, 4-(4-Chloro-2-fluorophenyl)-4-{7-[(methylsulfonyl)methyl]-1H-indol-3-yl}butanonitrile] |
| >500 | 6.57 µM | 2.28 µM | 0.11 µM | CS(=O)(=O)Cc1cccc2c(C(CCC#N)c3ccc4c(c3)OC(F)(F)O4)c[nH]c12 (stereo not shown) [Example 169, 4-(2,2-Difluoro-1,3-benzodioxol-5-yl)-4-{7-[(methylsulfonyl)methyl]-1H-indol-3-yl}butanonitrile] |
| 120 | 16 µM | 5.28 µM | 0.02 µM | CCC(CCC#N)(c1ccc(Cl)cc1)c1c[nH]c2c(CS(C)(=O)=O)cccc12 (stereo not shown) [Example 172, 4-(4-Chlorophenyl)-4-{7-[(methylsulfonyl)methyl]-1H-indol-3-yl}hexanonitrile] |
| 90 | 1.42 µM | 3.02 µM | 0.03 µM | CCC(CCO)(c1ccc(Cl)cc1)c1c[nH]c2c(CS(C)(=O)=O)cccc12 (stereo not shown) [Example 147, 3-(4-Chlorophenyl)-3-{7-[(methylsulfonyl)methyl]-1H-indol-3-yl}pentan-1-ol] |
| >200 | 10 µM | 0.98 µM | 0.006 µM | CS(=O)(=O)Cc1cc(F)cc2c(C(c3ccc(Cl)cc3F)C3CC3C#N)c[nH]c12 (single isomer, unassigned) [Example 273-1-2, 2-[(4-Chloro-2-fluorophenyl){5-fluoro-7-[(methylsulfonyl)methyl]-1H-indol-3-yl}methyl]cyclopropanecarbonitrile] |
| >500 | 6.44 µM | 5.22 µM | 0.09 µM | CS(=O)(=O)Cc1cccc2c(C(CCC#N)c3ccc4sccc4c3)c[nH]c12 (stereo not shown) [Example 73, 4-(1-Benzothiophen-5-yl)-4-{7-[(methylsulfonyl)methyl]-1H-indol-3-yl}butanonitrile] |
| >500 | 7.24 µM | 3.22 µM | 0.13 µM | CS(=O)(=O)Cc1cccc2c(C(c3ccc(F)cc3)c3ccc(C(F)(F)F)cc3)c[nH]c12 (stereo not shown) [Example 113, 3-{(4-Fluorophenyl) [4-(trifluoromethyl)phenyl]methyl}-7-[(methylsulfonyl)methyl]-1H-indole] |
| >200 | 12.3 µM | 5.64 µM | 0.033 µM | CS(=O)(=O)Cc1cccc2c(C(c3ccc(Cl)cc3)C3CC3(F)F)c[nH]c12 (single isomer, unassigned) [Example 261-1, 3-[(4-Chlorophenyl)(2,2-difluorocyclopropyl)methyl]-7-[(methylsulfonyl)methyl]-1H-indole] |
| >400 | 4.83 µM | 3.33 µM | 0.02 µM | CS(=O)(=O)Cc1cccc2c(C3(C4CC4)CCc4cc(F)ccc43)c[nH]c12 (stereo not shown) [Example 107, 3-(1-Cyclopropyl-5-fluoro-2,3-dihydro-1H-inden-1-yl)-7-[(methylsulfonyl)methyl]-1H-indole] |
